Source: ChEMBL document CHEMBL5465560, “Selectivity Literature for EUbOPEN Chemogenomic Library” (2024)

Assays:
[1] = biological target: Tyrosine-protein kinase Lyn (Homo sapiens, UniProt P07948); experiment: Selectivity interaction (KinomeScan (DiscoverX)) EUB0001049a LYN; details: at 1 µM
[2] = biological target: Ribosomal protein S6 kinase alpha-2 (Homo sapiens) (UniProt Q15349); experiment: Selectivity interaction (Millipore kinase profiler) EUB0000124b RPS6KA2; details: at 10 µM
[3] = biological target: T1, Hormonally up-regulated neu tumor-associated kinase (Homo sapiens) (UniProt P57058); experiment: Selectivity interaction (KinomeScan (DiscoverX)) EUB0000666a HUNK; details: at 10 µM
T1 sequence (whole entry): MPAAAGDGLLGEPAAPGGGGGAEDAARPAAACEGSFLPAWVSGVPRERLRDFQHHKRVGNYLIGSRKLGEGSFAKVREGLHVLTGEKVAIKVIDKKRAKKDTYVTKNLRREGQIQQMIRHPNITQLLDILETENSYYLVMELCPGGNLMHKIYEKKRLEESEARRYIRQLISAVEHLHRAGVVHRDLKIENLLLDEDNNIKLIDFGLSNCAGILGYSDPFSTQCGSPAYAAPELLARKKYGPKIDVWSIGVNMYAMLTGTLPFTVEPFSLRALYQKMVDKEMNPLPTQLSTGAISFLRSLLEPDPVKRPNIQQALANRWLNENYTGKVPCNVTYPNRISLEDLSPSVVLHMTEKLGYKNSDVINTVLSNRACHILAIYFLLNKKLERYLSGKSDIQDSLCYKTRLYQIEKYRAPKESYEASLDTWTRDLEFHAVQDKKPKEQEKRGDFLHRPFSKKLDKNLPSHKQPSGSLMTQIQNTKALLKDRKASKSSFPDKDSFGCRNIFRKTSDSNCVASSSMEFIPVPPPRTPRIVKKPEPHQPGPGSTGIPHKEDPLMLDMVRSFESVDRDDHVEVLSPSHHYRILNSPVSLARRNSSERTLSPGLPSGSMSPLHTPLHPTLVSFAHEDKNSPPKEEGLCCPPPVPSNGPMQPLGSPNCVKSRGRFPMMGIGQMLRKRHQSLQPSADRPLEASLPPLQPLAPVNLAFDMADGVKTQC

[4] = biological target: Serine/threonine-protein kinase SIK2 (Homo sapiens) (UniProt Q9H0K1); experiment: Selectivity interaction (KinomeScan (DiscoverX)) EUB0001079a SIK2; details: at 1 µM
[5] = biological target: T2, Serine/threonine-protein kinase 3 (Homo sapiens) (UniProt Q13188); experiment: Selectivity interaction (Kinase panel (DSF assay)) EUB0001558a STK3
T2 sequence (whole entry): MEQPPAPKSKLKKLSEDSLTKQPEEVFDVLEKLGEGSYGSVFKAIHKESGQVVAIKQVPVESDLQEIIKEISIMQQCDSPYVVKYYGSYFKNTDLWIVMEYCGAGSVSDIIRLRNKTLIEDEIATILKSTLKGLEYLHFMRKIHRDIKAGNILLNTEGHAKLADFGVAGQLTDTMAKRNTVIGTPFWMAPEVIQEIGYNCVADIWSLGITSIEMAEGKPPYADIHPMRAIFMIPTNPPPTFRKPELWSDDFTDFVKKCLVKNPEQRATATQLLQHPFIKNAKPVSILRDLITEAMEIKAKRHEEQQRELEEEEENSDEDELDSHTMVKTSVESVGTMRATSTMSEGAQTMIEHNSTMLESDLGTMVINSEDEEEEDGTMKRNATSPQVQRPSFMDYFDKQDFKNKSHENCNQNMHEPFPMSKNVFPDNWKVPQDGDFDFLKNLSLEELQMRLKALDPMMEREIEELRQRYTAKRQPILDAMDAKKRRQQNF

[6] = biological target: T3, NUAK family SNF1-like kinase 1 (Homo sapiens) (UniProt O60285); details: at 10 µM
T3 sequence (whole entry): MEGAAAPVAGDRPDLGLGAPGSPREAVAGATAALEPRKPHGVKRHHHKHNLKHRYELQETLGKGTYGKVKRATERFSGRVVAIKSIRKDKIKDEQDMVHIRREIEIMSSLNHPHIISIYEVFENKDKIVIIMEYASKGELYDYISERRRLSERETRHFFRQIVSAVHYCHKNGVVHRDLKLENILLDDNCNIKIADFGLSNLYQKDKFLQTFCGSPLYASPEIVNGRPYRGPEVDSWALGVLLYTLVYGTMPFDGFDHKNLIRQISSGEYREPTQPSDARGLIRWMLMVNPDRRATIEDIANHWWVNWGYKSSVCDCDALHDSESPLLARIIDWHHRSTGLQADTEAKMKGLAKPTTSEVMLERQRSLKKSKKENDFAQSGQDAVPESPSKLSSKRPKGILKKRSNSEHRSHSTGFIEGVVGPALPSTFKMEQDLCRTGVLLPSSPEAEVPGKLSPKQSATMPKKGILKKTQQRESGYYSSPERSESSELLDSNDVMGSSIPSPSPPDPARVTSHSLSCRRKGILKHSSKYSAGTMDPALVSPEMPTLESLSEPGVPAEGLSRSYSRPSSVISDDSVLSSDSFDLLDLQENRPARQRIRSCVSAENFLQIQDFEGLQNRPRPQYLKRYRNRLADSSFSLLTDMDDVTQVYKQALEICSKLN

[7] = biological target: Polycomb protein SUZ12 (Homo sapiens) (UniProt Q15022); experiment: Selectivity interaction (Methyltransferase screen (Scintillation proximity assays)) EUB0000255b SUZ12
[8] = biological target: Receptor tyrosine-protein kinase erbB-3 (Homo sapiens) (UniProt P21860); experiment: Selectivity interaction (KinomeScan (DiscoverX)) EUB0000607a ERBB3; details: at 10 µM
[9] = biological target: Myosin light chain kinase, smooth muscle (Homo sapiens, UniProt Q15746); experiment: Selectivity interaction (LanthaScreen Eu Kinase Binding Assay) EUB0001632a MYLK; details: at 10 µM
Myosin light chain kinase, smooth muscle, sequence (Q15746 whole entry): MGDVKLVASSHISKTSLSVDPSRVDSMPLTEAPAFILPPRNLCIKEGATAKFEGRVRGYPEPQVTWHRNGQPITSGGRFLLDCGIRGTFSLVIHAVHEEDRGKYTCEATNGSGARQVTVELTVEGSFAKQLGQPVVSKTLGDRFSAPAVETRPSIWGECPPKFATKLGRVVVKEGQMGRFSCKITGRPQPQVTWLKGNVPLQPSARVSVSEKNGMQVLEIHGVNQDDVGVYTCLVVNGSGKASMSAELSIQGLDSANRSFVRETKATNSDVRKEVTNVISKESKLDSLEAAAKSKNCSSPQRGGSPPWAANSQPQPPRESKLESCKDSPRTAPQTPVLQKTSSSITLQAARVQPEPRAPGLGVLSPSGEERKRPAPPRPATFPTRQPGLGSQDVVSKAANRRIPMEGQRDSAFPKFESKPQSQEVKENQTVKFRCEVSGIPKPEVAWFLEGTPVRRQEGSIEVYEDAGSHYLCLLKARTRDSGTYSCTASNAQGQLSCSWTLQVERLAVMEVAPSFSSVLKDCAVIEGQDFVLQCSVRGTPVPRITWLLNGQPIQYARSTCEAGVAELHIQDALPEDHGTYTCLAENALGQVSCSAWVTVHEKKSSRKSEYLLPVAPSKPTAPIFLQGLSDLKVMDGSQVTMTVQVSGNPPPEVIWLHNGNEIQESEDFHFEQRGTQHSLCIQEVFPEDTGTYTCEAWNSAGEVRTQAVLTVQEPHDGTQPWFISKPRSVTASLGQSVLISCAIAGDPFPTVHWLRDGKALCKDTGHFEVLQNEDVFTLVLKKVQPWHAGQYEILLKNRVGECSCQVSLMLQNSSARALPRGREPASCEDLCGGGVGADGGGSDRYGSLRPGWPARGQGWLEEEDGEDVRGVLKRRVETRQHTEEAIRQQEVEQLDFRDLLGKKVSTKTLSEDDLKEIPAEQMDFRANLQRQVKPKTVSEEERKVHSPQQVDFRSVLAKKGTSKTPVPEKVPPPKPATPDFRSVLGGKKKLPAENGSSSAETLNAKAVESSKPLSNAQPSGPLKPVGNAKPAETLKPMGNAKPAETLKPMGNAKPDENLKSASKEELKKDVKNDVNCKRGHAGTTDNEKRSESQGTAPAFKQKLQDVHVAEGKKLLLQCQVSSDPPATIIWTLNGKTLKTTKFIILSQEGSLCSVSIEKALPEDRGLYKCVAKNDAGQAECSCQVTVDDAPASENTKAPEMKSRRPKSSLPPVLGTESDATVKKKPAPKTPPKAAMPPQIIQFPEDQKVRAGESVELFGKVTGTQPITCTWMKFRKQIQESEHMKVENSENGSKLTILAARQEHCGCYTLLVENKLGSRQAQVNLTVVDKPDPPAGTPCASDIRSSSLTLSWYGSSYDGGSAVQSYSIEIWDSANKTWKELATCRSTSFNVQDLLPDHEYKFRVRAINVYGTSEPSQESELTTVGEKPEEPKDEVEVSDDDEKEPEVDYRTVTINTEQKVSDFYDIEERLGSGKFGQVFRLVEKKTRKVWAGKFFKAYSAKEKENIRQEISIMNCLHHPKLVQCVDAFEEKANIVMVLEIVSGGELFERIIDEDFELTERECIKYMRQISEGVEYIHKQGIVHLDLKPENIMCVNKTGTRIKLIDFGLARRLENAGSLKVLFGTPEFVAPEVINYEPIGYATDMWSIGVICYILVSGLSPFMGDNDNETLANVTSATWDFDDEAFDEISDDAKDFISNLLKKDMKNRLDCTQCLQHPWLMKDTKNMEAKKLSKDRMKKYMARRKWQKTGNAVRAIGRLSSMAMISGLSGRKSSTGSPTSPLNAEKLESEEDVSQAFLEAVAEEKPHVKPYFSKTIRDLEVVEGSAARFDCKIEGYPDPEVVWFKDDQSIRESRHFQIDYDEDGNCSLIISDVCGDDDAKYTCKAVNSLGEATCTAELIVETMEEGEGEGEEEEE

Polycomb protein SUZ12 (Homo sapiens), sequence (Q15022 whole entry): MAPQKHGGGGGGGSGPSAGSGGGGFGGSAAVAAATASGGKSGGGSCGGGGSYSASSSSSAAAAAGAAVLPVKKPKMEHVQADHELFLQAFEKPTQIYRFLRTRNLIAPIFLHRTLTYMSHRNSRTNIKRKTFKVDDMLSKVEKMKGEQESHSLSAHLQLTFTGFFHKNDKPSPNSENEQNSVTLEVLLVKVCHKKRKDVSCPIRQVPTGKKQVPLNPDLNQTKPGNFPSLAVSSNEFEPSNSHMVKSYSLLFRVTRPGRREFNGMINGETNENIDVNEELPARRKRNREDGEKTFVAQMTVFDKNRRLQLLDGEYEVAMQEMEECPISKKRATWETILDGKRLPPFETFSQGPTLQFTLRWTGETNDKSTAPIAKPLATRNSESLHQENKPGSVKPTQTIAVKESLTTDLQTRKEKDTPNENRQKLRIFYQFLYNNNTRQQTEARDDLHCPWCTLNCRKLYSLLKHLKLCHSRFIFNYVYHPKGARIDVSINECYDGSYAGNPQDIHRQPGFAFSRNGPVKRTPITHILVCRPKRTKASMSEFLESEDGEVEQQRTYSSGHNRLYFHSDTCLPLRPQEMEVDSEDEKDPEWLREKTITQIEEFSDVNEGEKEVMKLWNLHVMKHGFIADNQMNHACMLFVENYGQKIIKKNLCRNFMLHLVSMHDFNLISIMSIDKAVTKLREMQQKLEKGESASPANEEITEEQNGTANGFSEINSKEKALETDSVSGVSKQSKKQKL
Ribosomal protein S6 kinase alpha-2 (Homo sapiens), sequence (Q15349 whole entry): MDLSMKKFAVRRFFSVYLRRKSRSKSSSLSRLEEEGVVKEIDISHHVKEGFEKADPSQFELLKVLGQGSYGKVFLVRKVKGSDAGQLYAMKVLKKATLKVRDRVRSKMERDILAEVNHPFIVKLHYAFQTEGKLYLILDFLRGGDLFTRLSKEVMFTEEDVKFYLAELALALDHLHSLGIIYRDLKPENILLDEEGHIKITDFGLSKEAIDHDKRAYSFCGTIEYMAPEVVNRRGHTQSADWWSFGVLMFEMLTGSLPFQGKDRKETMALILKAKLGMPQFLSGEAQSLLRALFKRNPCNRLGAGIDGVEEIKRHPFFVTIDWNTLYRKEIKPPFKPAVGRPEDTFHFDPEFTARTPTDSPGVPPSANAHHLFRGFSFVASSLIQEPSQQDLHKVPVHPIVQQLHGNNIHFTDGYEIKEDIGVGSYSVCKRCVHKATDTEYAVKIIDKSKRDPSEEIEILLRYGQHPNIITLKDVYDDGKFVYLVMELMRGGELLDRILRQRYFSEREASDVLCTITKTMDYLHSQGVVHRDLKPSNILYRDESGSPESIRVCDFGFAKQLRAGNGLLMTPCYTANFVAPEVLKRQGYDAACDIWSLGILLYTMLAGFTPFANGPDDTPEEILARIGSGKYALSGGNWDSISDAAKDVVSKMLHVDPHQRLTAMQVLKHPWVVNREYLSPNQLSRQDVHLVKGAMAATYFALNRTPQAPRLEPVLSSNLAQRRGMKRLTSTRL
Serine/threonine-protein kinase SIK2 (Homo sapiens), sequence (Q9H0K1 whole entry, looked up): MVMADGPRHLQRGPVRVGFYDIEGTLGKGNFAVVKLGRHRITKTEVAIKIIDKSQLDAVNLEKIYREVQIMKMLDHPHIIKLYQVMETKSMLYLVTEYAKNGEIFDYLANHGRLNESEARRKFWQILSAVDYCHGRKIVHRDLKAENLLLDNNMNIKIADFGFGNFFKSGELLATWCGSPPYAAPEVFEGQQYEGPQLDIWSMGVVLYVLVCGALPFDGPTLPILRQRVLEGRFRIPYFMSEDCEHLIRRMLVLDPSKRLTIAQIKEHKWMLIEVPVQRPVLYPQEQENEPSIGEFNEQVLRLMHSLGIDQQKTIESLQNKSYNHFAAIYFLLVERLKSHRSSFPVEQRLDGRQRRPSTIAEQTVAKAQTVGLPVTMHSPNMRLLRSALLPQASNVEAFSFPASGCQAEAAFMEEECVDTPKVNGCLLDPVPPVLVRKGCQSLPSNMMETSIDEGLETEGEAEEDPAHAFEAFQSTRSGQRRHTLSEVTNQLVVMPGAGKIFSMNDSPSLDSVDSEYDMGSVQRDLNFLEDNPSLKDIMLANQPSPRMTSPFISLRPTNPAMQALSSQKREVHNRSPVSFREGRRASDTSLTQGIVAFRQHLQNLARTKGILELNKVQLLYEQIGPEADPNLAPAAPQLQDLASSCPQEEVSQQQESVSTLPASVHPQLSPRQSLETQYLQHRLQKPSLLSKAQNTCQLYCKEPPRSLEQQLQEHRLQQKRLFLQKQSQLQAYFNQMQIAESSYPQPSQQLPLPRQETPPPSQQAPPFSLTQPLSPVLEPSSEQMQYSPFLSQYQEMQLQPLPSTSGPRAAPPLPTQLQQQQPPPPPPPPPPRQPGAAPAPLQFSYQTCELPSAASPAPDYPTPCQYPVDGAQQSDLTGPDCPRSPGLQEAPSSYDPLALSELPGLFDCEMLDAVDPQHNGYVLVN
Tyrosine-protein kinase Lyn, sequence (P07948 2-512 limits assumed): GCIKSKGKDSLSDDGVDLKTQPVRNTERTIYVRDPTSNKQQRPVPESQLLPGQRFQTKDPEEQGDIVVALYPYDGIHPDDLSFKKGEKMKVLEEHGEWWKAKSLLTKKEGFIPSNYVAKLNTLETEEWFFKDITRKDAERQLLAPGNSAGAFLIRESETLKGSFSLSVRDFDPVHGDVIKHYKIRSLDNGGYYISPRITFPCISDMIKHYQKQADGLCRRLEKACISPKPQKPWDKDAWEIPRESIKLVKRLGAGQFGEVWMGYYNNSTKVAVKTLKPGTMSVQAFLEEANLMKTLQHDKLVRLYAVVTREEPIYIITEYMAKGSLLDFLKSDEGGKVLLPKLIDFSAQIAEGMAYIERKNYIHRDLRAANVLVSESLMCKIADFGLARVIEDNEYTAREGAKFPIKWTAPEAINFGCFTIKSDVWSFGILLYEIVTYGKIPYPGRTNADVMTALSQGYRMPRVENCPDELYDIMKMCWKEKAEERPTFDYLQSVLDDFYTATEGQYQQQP

## COc1cc(Nc2nc(C)cc(-c3cnn4nc(OC)ccc34)n2)cc(C(F)(F)F)c1
[1]
  % of control: 89%

## CC(=O)Nc1cccc(-n2c(=O)n(C3CC3)c(=O)c3c(Nc4ccc(I)cc4F)n(C)c(=O)c(C)c32)c1
[2]
  % of control: 102%

## O=C(NOC[C@H](O)CO)c1ccc(F)c(F)c1Nc1ccc(I)cc1F
[3]
  % of control: 100%

## Nc1cnc(N2CCc3cc(S(=O)(=O)Nc4c(F)cc(Cl)cc4F)cc(N4CCCC4=O)c32)nc1 [TP-020n]
[4]
  % of control: 100%

## CC(C)(O)[C@H](F)CN1Cc2cc(NC(=O)c3cnn4cccnc34)c(N3CCOCC3)cc2C1=O
[5]
  dTM: 2.1 K

## CCN(CC)CCCCNc1ncc2cc(-c3cc(OC)cc(OC)c3)c(NC(=O)NC(C)(C)C)nc2n1
[6]
  % of control: 100%

## COCCN1CCC(c2cc(CN(C)C(=O)c3cccc(Oc4ccccc4)c3)ccn2)CC1
[7]; at 1 µM
  % activity: > 95%
[7]; at 10 µM
  % activity: > 90%

## CNC(=O)Nc1ccc(-c2nc(N3CC4CCC(C3)O4)c3cnn(C4CCC5(CC4)OCCO5)c3n2)cc1
[8]
  % of control: 100%

## Cn1cc(-n2cnc3c(NCc4nc5cc(Cl)c(Cl)cc5[nH]4)nc(N4CCOCC4)nc32)cn1
[9]
  % of inhibition: -17.4%
